Experimental findings from PubChem BioAssay (NCI) are described below.

Test systems include OVCAR-4 ovarian; SF-539 CNS; M14 melanoma; CCRF-CEM leukemia; A549 NSCLC; NCI-H522 lung; SW-620 colon; NCI/ADR-RES ovarian; MDA-MB-435.
Holding throughout (assay): NCI anticancer screen, dose series, 48 h

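Results reflect a 48-hour exposure of cells in 96-well plates to compound at five concentrations. GI50: concentration for 50% inhibition of growth. TGI is the concentration that stops growth completely.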

Take `CN(c1ccccc1)C(c1ccccc1)C(O)c1ccccc1` (stereo unspecified): the TGI came to 34.5 µM with OVCAR-4 ovarian; 37.7 µM with SF-539 CNS; 30.4 µM in the assay on M14 melanoma; 63.3 µM with CCRF-CEM leukemia; 35.4 µM in the assay with A549 NSCLC; 36.9 µM in the assay with NCI-H522 lung. The compound further came in with a TGI with SW-620 colon of 33.2 µM.
Turning to `CC(C(=O)Oc1ccc2ccccc2c1-c1c(O)ccc2ccccc12)c1ccccc1` (stereo unspecified), the TGI in the assay on OVCAR-4 ovarian is 23.5 µM; with SF-539 CNS, 33.9 µM; with M14 melanoma it was 27.7 µM; in the assay with CCRF-CEM leukemia it was 64.4 µM; with A549 NSCLC, 30 µM; in the assay on SW-620 colon it was 31.8 µM.
As for `ON=C1CCC(c2ccccc2)CC1` (stereo unspecified), the TGI in the assay on OVCAR-4 ovarian, in the assay on SF-539 CNS, in the assay with M14 melanoma, in the assay with CCRF-CEM leukemia, in the assay with A549 NSCLC and in the assay with NCI-H522 lung was > 100 µM each time. Besides, in the assay on SW-620 colon, the TGI was > 100 µM.
As for `CCOC(=O)C(=O)Nc1c(N(CC)CC)n2ccccc2nc1=O`, the TGI in the assay on SF-539 CNS, in the assay with M14 melanoma, in the assay with CCRF-CEM leukemia, in the assay with A549 NSCLC, with NCI-H522 lung and with SW-620 colon was > 100 µM in each case.
Turning to `COc1ccc(/C=C2/C[N+](C)(C)C/C(=C/c3ccc(OC)cc3)C2=O)cc1`, the TGI with OVCAR-4 ovarian was > 88.9 µM; in the assay with SF-539 CNS, > 100 µM; with M14 melanoma, > 100 µM; with CCRF-CEM leukemia, > 96.1 µM; with A549 NSCLC, > 100 µM; in the assay with NCI-H522 lung it was 37.9 µM. Moreover, in the assay with SW-620 colon, the TGI is > 100 µM.
On to `O=S1(=O)C[C@@H](O)[C@H](O)CS1`, for which the TGI in the assay on OVCAR-4 ovarian, in the assay with SF-539 CNS, with M14 melanoma, in the assay on A549 NSCLC, in the assay with NCI-H522 lung and with SW-620 colon was > 100 µM throughout.
With `O=C(O)c1cc2c(cn1)[nH]c1ccccc12`, the TGI with OVCAR-4 ovarian, with SF-539 CNS, in the assay with M14 melanoma, in the assay with CCRF-CEM leukemia, in the assay with A549 NSCLC and with NCI-H522 lung was > 100 µM throughout. Further, the TGI in the assay on SW-620 colon was > 100 µM.
Take `COC(=O)c1nc(NC#N)[nH]c(=O)c1C`: the TGI in the assay with OVCAR-4 ovarian was > 100 µM; in the assay with SF-539 CNS, > 93 µM; in the assay with M14 melanoma, > 100 µM; with CCRF-CEM leukemia it was > 100 µM; in the assay on A549 NSCLC, > 100 µM; with NCI-H522 lung, > 100 µM. Moreover, the TGI in the assay on SW-620 colon is > 100 µM.
In the case of `CN(C)CCCNC(=O)c1cc(NC(=O)c2cc(NC(=O)c3cc(NC(=O)CCc4c[nH]c5ccccc45)cn3C)cn2C)cn1C`, the GI50 was 88.5 µM with OVCAR-4 ovarian; > 100 µM in the assay on SF-539 CNS; > 100 µM in the assay on M14 melanoma; > 100 µM in the assay with CCRF-CEM leukemia; > 100 µM with NCI/ADR-RES ovarian; > 100 µM in the assay on A549 NSCLC. Besides, the GI50 in the assay on MDA-MB-435, with NCI-H522 lung and with SW-620 colon was > 100 µM in each case. Moreover, the TGI in the assay on OVCAR-4 ovarian, with SF-539 CNS, in the assay with M14 melanoma, in the assay on CCRF-CEM leukemia, in the assay with NCI/ADR-RES ovarian and in the assay with A549 NSCLC was > 100 µM in each case. In addition, the TGI in the assay with MDA-MB-435, with NCI-H522 lung and with SW-620 colon was > 100 µM in each case.
As to `O=C(c1ccccc1)c1c(C(=O)c2ccccc2)c(-c2ccccc2)c2c(-c3ccccc3)sc(-c3ccccc3)c2c1-c1ccccc1`, the TGI in the assay on OVCAR-4 ovarian, with SF-539 CNS, in the assay on M14 melanoma, in the assay with CCRF-CEM leukemia, with A549 NSCLC and with NCI-H522 lung was > 100 µM each time. For the same compound, the TGI in the assay with SW-620 colon was > 100 µM.
As for `Nc1c(-c2nc3ccccc3[nH]2)sc(=S)n1-c1ccccc1`, the TGI was > 100 µM in the assay with OVCAR-4 ovarian; > 100 µM in the assay on SF-539 CNS; > 100 µM in the assay on M14 melanoma; 81.2 µM in the assay on CCRF-CEM leukemia; > 100 µM with A549 NSCLC; > 100 µM with NCI-H522 lung. In addition, in the assay with SW-620 colon, the TGI was > 100 µM.
On to `CCOC(=O)C(C)c1cc(C2(C)OCCO2)c(C)o1` (stereo unspecified), for which the TGI with OVCAR-4 ovarian, in the assay on SF-539 CNS, in the assay on M14 melanoma, in the assay with CCRF-CEM leukemia, in the assay with A549 NSCLC and with SW-620 colon was > 100 µM each time.
With `Cc1c2cc[nH]c(=O)c2cc2c(=O)c3cnccc3[nH]c12`, the TGI in the assay on OVCAR-4 ovarian, with M14 melanoma, with CCRF-CEM leukemia, with A549 NSCLC, in the assay with NCI-H522 lung and in the assay with SW-620 colon was > 100 µM each time.
For `O=C(Oc1ccc(CCl)cc1)c1ccccc1`, the GI50 with OVCAR-4 ovarian is 0.159 µM; in the assay with SF-539 CNS it was 0.152 µM; with M14 melanoma, 0.125 µM; with CCRF-CEM leukemia, 0.0335 µM; with NCI/ADR-RES ovarian, 0.2 µM; in the assay on A549 NSCLC it was 1.16 µM. For the same compound, the GI50 in the assay on MDA-MB-435 was 0.155 µM; in the assay on NCI-H522 lung, 0.154 µM; in the assay with SW-620 colon it was 0.103 µM. The TGI with OVCAR-4 ovarian came out at 0.313 µM; with SF-539 CNS, 0.286 µM; in the assay with M14 melanoma, 0.348 µM; with CCRF-CEM leukemia it was 0.146 µM; in the assay on NCI/ADR-RES ovarian it was 0.472 µM; in the assay with A549 NSCLC it was 2.42 µM. The values for the TGI in the assay on MDA-MB-435, in the assay with NCI-H522 lung and in the assay on SW-620 colon were 0.299 µM, 0.316 µM and 0.247 µM, respectively.
As for `N.N.NC(CS)C(=O)[O-].NC(CS)C(=O)[O-].[Pt+4]` (stereo unspecified), the GI50 in the assay with OVCAR-4 ovarian, with SF-539 CNS, with M14 melanoma, in the assay with CCRF-CEM leukemia, in the assay on A549 NSCLC and in the assay with NCI-H522 lung was > 50 µM in each case. Also, in the assay on SW-620 colon, the GI50 was > 50 µM. Further, the TGI with OVCAR-4 ovarian, in the assay on SF-539 CNS, in the assay on M14 melanoma, in the assay with CCRF-CEM leukemia, in the assay with A549 NSCLC and with NCI-H522 lung was > 50 µM in each case. In addition, the TGI with SW-620 colon was > 50 µM.
For the compound `O=C1OC2(c3ccccc3Oc3ccccc32)c2ccccc21`, the TGI in the assay on OVCAR-4 ovarian, with SF-539 CNS, with M14 melanoma, with CCRF-CEM leukemia, in the assay on A549 NSCLC and with NCI-H522 lung was > 100 µM throughout. In addition, the TGI with SW-620 colon is > 100 µM.
